Like-named read-outs stand apart in the source and are kept apart here.
Tests used:
[1] = molecular target: SRC (Homo sapiens, UniProt P12931); assay: Biochemical kinase profiling (33PanQinase radiometric assay)
[2] = molecular target: ROCK1 (Homo sapiens, UniProt Q13464); assay: as above
[3] = molecular target: ROCK2 (Homo sapiens, UniProt O75116); assay: as above
[4] = system: NMuMG cells; assay: High-content microscopy EMT screen in TGFβ-treated NMuMG cells (FA, SF, FN, cell count); assay type: cell-based, murine; details: for Emax (maximal effect on cell count): compared to reference 10 μM SB-431542 = 100%; for Emax: read-out: Emax (maximal effect on cell count)
[5] = molecular target: T1, TGFBR1 (Homo sapiens, UniProt P36897); assay: Biochemical kinase profiling (33PanQinase radiometric assay)
T1 sequence (P36897 34-503): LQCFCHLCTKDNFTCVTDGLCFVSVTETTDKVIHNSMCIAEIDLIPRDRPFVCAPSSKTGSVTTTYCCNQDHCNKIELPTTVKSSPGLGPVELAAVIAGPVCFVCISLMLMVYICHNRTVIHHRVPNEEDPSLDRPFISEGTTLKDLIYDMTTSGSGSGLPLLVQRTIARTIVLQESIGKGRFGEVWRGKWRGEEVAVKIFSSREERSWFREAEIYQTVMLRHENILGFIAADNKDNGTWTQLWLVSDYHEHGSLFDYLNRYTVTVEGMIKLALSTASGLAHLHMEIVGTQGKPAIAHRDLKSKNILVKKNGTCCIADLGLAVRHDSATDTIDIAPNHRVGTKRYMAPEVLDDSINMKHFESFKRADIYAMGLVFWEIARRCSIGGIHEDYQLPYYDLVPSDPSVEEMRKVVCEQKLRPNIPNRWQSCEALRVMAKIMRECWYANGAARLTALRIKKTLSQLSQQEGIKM

[6] = molecular target: TGFBR2 (Homo sapiens, UniProt P37173); assay: as above
[7] = molecular target: PDGFRB (Homo sapiens, UniProt P09619); assay: as above
[8] = system: Py2T cells; assay: High-content microscopy EMT assay in TGFβ-treated Py2T breast cancer cells; assay type: cell-based, murine; details: for Emax (maximal effect on cell count): compared to reference 10 μM SB-431542 = 100%
[9] = system: ROCK; assay: ROCK cellular assay (MLC Thr18/Ser19 phosphorylation ELISA in A7r5 cells); assay type: cell-based, rat; details: 90 min compound
[10] = molecular target: FGFR4 (Homo sapiens, UniProt P22455); assay: Biochemical kinase profiling (33PanQinase radiometric assay)
[11] = molecular target: FGFR2 (Homo sapiens, UniProt P21802); assay: as above
[12] = molecular target: FGFR3 (Homo sapiens, UniProt P22607); assay: as above
[13] = molecular target: PDGFRA (Homo sapiens, UniProt P16234); assay: as above; details: read-out: PDGFRA IC50; ATP at apparent Km
[14] = Mus musculus, NMuMG, cell count decreased by 50% compared to DMSO control, read-out: Tox IC50
[15] = NMuMG, TGFβ1 2 ng/ml plus compound, 4 days, parameter decreased by 50%
[16] = Py2T, cell count decreased by 50% compared to DMSO control, read-out: Tox IC50
[17] = Py2T, compared to 10 μM SB-431542, read-out: CCI IC50 (cell count increase)
[18] = read-out: ROCK1 IC50, ATP at apparent Km
[19] = read-out: ROCK2 IC50, ATP at apparent Km
[20] = Mus musculus, Py2T, cell count decreased by 50% compared to DMSO control, read-out: Tox IC50
[21] = Mus musculus, read-out: CCI IC50 (cell count increase)
[22] = Mus musculus, 96 h, NMuMG, TGFβ1 2 ng/ml plus compound, 4 days, parameter decreased by 50%, read-out: FA IC50 (focal adhesion formation)
[23] = Mus musculus, 96 h, NMuMG, TGFβ1 2 ng/ml plus compound, 4 days, parameter decreased by 50%, read-out: FN IC50 (fibronectin patch formation)
[24] = Mus musculus, 96 h, NMuMG, TGFβ1 2 ng/ml plus compound, 4 days, parameter decreased by 50%, read-out: SF IC50 (stress fibers)
[25] = Mus musculus, NMuMG, mean of IC50 values obtained for FA, SF, FN, read-out: EMT (FA/SF/FN) combined IC50
[26] = Py2T, TGFβ plus compound, 4 days

Chain of ROCK1 (Q13464 whole entry): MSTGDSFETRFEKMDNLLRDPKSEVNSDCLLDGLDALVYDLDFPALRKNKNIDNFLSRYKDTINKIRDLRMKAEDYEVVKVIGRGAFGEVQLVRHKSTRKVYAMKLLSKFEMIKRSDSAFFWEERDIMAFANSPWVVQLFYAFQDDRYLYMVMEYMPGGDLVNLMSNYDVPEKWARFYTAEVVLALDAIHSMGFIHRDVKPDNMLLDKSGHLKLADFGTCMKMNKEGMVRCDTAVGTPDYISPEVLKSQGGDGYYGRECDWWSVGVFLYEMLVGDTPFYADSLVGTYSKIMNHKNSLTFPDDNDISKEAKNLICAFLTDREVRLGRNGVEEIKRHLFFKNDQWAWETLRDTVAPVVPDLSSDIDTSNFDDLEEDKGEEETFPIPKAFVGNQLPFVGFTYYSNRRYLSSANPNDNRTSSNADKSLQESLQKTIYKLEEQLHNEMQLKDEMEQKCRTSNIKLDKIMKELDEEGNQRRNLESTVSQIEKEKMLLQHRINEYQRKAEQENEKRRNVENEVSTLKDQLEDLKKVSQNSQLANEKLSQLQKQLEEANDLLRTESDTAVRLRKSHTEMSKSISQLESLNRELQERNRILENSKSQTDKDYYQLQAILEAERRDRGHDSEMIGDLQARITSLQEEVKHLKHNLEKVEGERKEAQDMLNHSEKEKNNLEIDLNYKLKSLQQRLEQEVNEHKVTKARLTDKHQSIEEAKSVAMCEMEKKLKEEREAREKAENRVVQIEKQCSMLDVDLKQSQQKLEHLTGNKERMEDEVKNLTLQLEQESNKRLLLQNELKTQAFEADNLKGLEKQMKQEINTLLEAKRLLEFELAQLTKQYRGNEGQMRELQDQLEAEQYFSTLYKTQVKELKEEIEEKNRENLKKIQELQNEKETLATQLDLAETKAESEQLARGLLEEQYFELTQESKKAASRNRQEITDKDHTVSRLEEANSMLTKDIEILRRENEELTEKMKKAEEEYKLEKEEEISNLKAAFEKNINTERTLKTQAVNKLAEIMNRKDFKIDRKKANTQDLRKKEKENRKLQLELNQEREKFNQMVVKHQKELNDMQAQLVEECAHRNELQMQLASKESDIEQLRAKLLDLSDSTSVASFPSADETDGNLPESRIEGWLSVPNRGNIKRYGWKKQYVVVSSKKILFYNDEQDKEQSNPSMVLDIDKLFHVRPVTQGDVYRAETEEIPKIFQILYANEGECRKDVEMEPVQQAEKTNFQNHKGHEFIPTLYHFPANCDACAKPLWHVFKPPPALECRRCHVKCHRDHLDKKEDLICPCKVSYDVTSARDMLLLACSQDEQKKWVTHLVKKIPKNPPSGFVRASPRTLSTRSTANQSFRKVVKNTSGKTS
Chain of TGFBR2 (P37173 23-567): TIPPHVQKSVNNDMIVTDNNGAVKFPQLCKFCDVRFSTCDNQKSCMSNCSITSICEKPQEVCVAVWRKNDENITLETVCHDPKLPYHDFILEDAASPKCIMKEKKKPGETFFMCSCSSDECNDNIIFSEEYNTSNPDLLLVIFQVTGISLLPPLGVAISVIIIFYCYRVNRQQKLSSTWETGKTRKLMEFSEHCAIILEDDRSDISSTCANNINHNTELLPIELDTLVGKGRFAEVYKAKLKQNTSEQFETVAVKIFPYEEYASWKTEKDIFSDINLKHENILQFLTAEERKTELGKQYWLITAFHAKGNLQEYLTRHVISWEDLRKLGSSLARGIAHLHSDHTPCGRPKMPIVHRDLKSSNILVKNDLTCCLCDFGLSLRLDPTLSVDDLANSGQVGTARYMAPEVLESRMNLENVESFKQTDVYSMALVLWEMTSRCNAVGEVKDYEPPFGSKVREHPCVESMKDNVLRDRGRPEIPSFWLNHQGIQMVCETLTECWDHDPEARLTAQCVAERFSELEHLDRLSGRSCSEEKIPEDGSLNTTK
Chain of ROCK2 (O75116 whole entry): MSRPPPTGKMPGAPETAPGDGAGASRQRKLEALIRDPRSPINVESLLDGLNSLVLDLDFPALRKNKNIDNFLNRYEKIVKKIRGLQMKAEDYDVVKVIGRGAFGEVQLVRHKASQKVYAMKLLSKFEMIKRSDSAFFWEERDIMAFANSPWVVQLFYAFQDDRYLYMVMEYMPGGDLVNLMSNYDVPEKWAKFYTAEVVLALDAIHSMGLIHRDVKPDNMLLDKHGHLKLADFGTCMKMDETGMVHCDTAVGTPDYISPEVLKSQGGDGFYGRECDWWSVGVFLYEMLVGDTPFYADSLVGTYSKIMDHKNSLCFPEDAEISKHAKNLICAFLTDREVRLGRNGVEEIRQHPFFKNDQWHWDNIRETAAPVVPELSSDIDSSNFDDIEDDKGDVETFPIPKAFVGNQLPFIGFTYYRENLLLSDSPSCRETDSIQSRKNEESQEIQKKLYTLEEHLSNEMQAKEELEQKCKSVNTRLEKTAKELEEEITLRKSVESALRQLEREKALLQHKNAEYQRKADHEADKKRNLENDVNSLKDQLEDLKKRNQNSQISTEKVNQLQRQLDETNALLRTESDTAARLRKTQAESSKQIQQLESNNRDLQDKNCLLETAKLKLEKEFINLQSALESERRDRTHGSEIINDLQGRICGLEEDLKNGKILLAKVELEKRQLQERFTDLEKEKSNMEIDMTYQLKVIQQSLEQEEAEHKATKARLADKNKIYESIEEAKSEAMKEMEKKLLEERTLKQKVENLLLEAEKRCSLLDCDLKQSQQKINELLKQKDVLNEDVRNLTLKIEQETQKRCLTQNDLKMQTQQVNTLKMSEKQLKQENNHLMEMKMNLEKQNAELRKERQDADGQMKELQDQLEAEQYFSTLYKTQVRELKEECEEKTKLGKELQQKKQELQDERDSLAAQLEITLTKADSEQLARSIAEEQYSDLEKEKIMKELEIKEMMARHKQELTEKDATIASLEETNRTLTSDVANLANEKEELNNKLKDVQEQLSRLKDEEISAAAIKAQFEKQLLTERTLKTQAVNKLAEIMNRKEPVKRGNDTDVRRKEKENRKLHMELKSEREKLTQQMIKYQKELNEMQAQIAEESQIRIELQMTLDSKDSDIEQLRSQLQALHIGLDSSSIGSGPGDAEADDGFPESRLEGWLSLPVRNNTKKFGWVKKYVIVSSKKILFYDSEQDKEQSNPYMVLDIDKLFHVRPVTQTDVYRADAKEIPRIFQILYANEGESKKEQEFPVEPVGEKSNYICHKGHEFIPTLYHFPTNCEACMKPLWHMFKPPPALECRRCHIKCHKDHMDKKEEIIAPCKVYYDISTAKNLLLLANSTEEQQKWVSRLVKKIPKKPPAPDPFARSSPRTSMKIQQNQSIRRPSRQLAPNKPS
Chain of FGFR4 (P22455 22-802): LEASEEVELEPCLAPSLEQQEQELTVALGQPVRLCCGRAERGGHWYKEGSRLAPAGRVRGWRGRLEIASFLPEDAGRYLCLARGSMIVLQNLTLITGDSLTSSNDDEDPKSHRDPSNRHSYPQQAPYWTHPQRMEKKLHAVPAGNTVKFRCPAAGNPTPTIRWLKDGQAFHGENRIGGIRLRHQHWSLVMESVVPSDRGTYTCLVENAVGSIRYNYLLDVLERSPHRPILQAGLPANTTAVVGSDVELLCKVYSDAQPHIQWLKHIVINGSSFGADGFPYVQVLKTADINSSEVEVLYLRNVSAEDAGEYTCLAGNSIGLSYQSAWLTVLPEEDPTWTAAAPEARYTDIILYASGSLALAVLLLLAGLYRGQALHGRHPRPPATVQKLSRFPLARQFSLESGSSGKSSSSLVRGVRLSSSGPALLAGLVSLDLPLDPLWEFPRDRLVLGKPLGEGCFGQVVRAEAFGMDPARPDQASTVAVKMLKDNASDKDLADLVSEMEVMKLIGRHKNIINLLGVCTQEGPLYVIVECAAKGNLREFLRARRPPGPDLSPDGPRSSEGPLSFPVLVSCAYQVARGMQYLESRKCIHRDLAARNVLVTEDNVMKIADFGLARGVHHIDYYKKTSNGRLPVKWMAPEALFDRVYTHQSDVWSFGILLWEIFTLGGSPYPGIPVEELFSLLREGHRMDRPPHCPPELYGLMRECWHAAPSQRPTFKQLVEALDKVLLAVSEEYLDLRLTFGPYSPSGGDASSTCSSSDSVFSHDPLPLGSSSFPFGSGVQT
Chain of SRC (P12931 whole entry): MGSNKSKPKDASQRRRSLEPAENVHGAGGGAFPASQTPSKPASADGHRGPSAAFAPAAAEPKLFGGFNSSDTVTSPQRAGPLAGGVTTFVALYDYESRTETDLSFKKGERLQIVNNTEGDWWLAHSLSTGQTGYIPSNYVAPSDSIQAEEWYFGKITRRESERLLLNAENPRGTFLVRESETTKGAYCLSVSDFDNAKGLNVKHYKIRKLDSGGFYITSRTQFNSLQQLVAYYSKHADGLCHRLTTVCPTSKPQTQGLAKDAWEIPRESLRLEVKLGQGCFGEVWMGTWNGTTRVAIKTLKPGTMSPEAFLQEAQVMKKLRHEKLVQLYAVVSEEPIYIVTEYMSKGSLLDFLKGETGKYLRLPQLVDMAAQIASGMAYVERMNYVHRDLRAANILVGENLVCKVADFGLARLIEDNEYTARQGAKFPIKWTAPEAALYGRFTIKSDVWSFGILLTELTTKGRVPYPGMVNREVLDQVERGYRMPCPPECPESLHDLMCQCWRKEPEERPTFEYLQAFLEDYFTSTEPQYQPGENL

IC50 [2] [nM]	IC50 [3] [nM]	IC50 [5] [nM]	IC50 [8, 17] [nM]	IC50 [2, 18] [nM]	IC50 [3, 19] [nM]	IC50 [4, 22] [nM]	IC50 [4, 23] [nM]	IC50 [4, 24] [nM]	IC50 [4, 25] [nM]	IC50 [4, 21] [nM]	FA IC50 (focal adhesions) [8, 26]	FN IC50 (fibronectin patches) [8, 26]	SF IC50 (stress fibers) [8, 26]	SMILES	IC50 [4, 14] [nM]	Emax (maximal effect on cell count) ([4]; NMuMG)	IC50 [8, 16] [nM]	Emax (maximal effect on cell count) ([8]; Py2T)	IC50 [8, 20] [nM]	Emax ([4]; Mus musculus) [%]	also measured
> 10000	> 10000	> 10000												CCN1CCN(c2ccc(Nc3cc(N(C)C(=O)Nc4c(Cl)c(OC)cc(OC)c4Cl)ncn3)cc2)CC1 [BGJ398]	1500	n.m.					IC50 [1]: 7940 nM; FA IC50 (focal adhesion formation) [4, 15]: n.m.; FN IC50 (fibronectin patch formation) [4, 15]: n.m.; SF IC50 (stress fibers) [4, 15]: n.m.; IC50 [6]: > 10000 nM; IC50 [7]: 7430 nM
			> 25000	54	17.8									NC(=O)c1ccc(NC(=O)NCc2cccc(C(=O)Nc3ccc4c(c3)CNCC4)c2)cc1 [CAY10622]			> 25000	18.4%			IC50 ([8]; Py2T, TGFβ plus compound, 4 days, read-out: FA IC50 (focal adhesions)): > 25000 nM; IC50 ([8]; Py2T, TGFβ plus compound, 4 days, read-out: FN IC50 (fibronectin patches)): > 25000 nM; IC50 ([8]; Py2T, TGFβ plus compound, 4 days, read-out: SF IC50 (stress fibers)): > 25000 nM; IC50 [9]: > 10000 nM
46.7	55.3					127	264	82	158	142				CC1=C(C(=O)Nc2cc3cn[nH]c3cc2F)C(c2ccc(C(F)(F)F)cc2)CC(=O)N1 (stereo not shown) [GSK429286A]	> 25000				20300	33.2	IC50 ([8]; Mus musculus, 96 h, Py2T, TGFβ plus compound, 4 days, read-out: FA IC50 (focal adhesions)): 245 nM; IC50 ([8]; Mus musculus, 96 h, Py2T, TGFβ plus compound, 4 days, read-out: FN IC50 (fibronectin patches)): 192 nM; IC50 ([8]; Mus musculus, 96 h, Py2T, TGFβ plus compound, 4 days, read-out: SF IC50 (stress fibers)): 105 nM; IC50 [8, 21]: 51.8 nM; Emax ([8]; Mus musculus, read-out: Emax (maximal effect on cell count)): 47.5%; IC50 ([9]; Rattus norvegicus, 1.5 h): 29 nM
			232	> 10000	> 10000						n.m.	n.m.	n.m.	CCN(CC)CCCCNc1ncc2cc(-c3c(Cl)cccc3Cl)c(NC(=O)NC(C)(C)C)nc2n1 [PD-161570]		50.8%	479	43%			IC50 ([1]; read-out: SRC IC50, ATP at apparent Km): 5.2 nM; IC50 ([10]; read-out: FGFR4 IC50, ATP at apparent Km): 667 nM; IC50 ([11]; read-out: FGFR2 IC50, ATP at apparent Km): 6.5 nM; IC50 ([4]; NMuMG, TGFβ1 2 ng/ml plus compound, 4 days, parameter decreased by 50%, read-out: FA IC50 (focal adhesion formation)): 337 nM; IC50 ([4]; NMuMG, TGFβ1 2 ng/ml plus compound, 4 days, parameter decreased by 50%, read-out: FN IC50 (fibronectin patch formation)): 1040 nM; IC50 ([4]; NMuMG, TGFβ1 2 ng/ml plus compound, 4 days, parameter decreased by 50%, read-out: SF IC50 (stress fibers)): 702 nM; IC50 ([4]; NMuMG, cell count decreased by 50% compared to DMSO control, read-out: Tox IC50): 4970 nM; IC50 ([4]; NMuMG, cell count increased by 50% compared to 100% with 10 μM SB-431542, read-out: CCI IC50 (cell count increase)): 525 nM; IC50 ([4]; NMuMG, mean of IC50 values obtained for FA, SF, FN, read-out: EMT (FA/SF/FN) combined IC50): 694 nM; IC50 ([12]; read-out: FGFR3 IC50, ATP at apparent Km): 27.2 nM; IC50 [13]: 2370 nM; IC50 ([5]; read-out: TGFBR1 IC50, ATP at apparent Km): 44.9 nM; IC50 ([6]; read-out: TGFBR2 IC50, ATP at apparent Km): 1280 nM; IC50 ([7]; read-out: PDGFRB IC50, ATP at apparent Km): 95.8 nM
		6.8				27	39	79	48.3	17	n.m.	n.m.	n.m.	CCN(CC)CCOc1ccc(Nc2ncc3cc(-c4c(Cl)cccc4Cl)c(=O)n(C)c3n2)cc1 [PD-166285]	229			n.m.	138	24	IC50 [10]: 55.5 nM; IC50 [11]: 1.8 nM; IC50 [12]: 9 nM; IC50 ([6]; TGFBR2 IC50, ATP at apparent Km): 137 nM

From article PMC5041959, “A high-content EMT screen identifies multiple receptor tyrosine kinase inhibitors with activity on TGFβ receptor” (Oncotarget, 2016)
